The record followed here is patent US4384118A, “4-(3-Iodopropargyloxy) pyrimidine derivatives” (SPOFA, spojene podniky pro zdravotnickou vyrobu, priority 1980, dated 1983).

≈ marks a conversion by molar mass, not a printed value. Read-outs that look alike come from different tables or passages of the source.

Holding throughout (type): cell-based
Test [1] deals with Trichophyton Mentagrophytes. In words: Minimum inhibitory concentration vs Trichophyton Mentagrophytes. The conditions noted are these: for activity against Trichophyton mentagrophytes compared with known antimycotic agents: comparison with best antimycotic agents previously known; for activity against Trichophyton mentagrophytes (in words): same range as the minimum inhibitory concentrations in Aspergillus niger, 0.3 to 0.7 μg/ml; for MIC: Table A, TM = Trichophyton Mentagrophytes, read-out: Minimum Inhibitory Concentrations. From the text: (§1) For comparative purposes, three of the compounds of formula (1) were compared with Clotrimazole and Haloprogine, well known prior art antimycotic compounds. Comparisons of minimum inhibitory concentration in μg/ml. were made with respect to four strains of […].

The subject of the next test is Sporotrichum cejpii. In words: Minimum inhibitory concentration vs Sporotrichum cejpii. To be noted: Table B. How it is done:
(§2) Additionally, certain compounds of the invention were evaluated with respect to other mold species. Thus, for example, 2-ethylthio-4-(3 iodopropargyloxy) pyrimidine was evaluated with respect to the species identified in Table B, below and the noted minimum inhibitory cencentrations determined: […]

Test [2] concerns Trichophyton schoenleinii. As to the kind of experiment: Minimum inhibitory concentration vs Trichophyton schoenleinii. The conditions noted are these: Table B. As to the method: as §2
For a further test, the system named is Epidermophyton floccosum. As to the kind of experiment: Minimum inhibitory concentration vs Epidermophyton floccosum. To be noted: Table B. As to the method:
as §2

In a further test the test system is Trichophyton rubrum. As to the kind of experiment: Minimum inhibitory concentration vs Trichophyton rubrum. The conditions noted are these: Table B. As to the method:
as §2

The next test relates to Keratinomyces ajelloi. In words: Minimum inhibitory concentration vs Keratinomyces ajelloi. The conditions noted are these: Table B. How it is done: as §2
The test system of a further test is Microsporum Canis. In words: Minimum inhibitory concentration vs Microsporum Canis. The conditions noted are these: Table B. As to the method: as §2
The subject of a further test is Trichophyton verrucosum. In words: Minimum inhibitory concentration vs Trichophyton verrucosum. The conditions noted are these: Table B. As to the method:
as §2

A further test concerns Microsporum gypseum. As to the kind of experiment: Minimum inhibitory concentration vs Microsporum gypseum. To be noted: Nannizzia gypsea, Table B. As to the method: as §2
The subject of a further test is Aspergillus Niger. As to the kind of experiment: Minimum inhibitory concentration vs Aspergillus Niger.
Source text: as §1

A further test has as its system Candida Alicans. In words: Minimum inhibitory concentration vs Candida Alicans. To be noted: Table A, CA = Candida Alicans; read-out: Minimum Inhibitory Concentrations.
Source text: as §1

In the next test the test system is Sacharomyces Pastorianus. In words: Minimum inhibitory concentration vs Sacharomyces Pastorianus. To be noted: Table A, SP = Sacharomyces Pastorianus; read-out: Minimum Inhibitory Concentrations.
Source text: as §1

Where [3] appears, read: Aspergillus niger, read-out: minimum inhibitory concentration.
The mark [4] stands for this setting: Table A, AN = Aspergillus Niger, read-out: Minimum Inhibitory Concentrations.

In the case of `COc1cnc(N)nc1OCC#CI` [2-amino-5-methoxy-4-(3-iodopropargyloxy) pyrimidine], in test [1], the “activity against Trichophyton mentagrophytes compared with known antimycotic agents” value is “comparable with that of the best antimycotic agents previously known” and the “activity against Trichophyton mentagrophytes (in words)” value (shortened to “activity … (in words)”) is reported as “lies in the same range”.
`CCSc1nccc(OCC#CI)n1` [2-ethylthio-4-(3 iodopropargyloxy) pyrimidine]: the MIC in the test with Sporotrichum cejpii stood at 0.3 µg/mL (≈ 0.937 µM); in [2], 0.03 µg/mL (≈ 0.0937 µM); against Epidermophyton floccosum, 0.3 µg/mL (≈ 0.937 µM); in the test on Trichophyton rubrum, 0.07 µg/mL (≈ 0.219 µM); in the test with Keratinomyces ajelloi it was 0.3 µg/mL (≈ 0.937 µM); in the test with Microsporum Canis it was 0.15 µg/mL (≈ 0.469 µM). The values for the MIC with Trichophyton verrucosum and with Microsporum gypseum were 0.15 µg/mL (≈ 0.469 µM) and 0.3 µg/mL (≈ 0.937 µM), respectively.
As for `CCSc1ncc(OC)c(OCC#CI)n1` [2-ethylthio-5-methoxy-4-(3-iodopropargyloxy) pyrimidine], the MIC in the test with Aspergillus Niger (setting [3]) was 0.03 µg/mL (≈ 0.0857 µM).
Take `CSc1nccc(OCC#CI)n1` [2-methylthio-4-(3-iodopropargyloxy) pyrimidine]: in [1], the “activity against Trichophyton mentagrophytes compared with known antimycotic agents” value is given as “comparable with that of the best antimycotic agents previously known” and the “activity … (in words)” value is “lies in the same range”.
Consider `CSc1ncc(Br)c(OCC#CI)n1` [2-methylthio-5-bromo-4-(3-iodopropargyloxy) pyrimidine], for which the MIC with Aspergillus Niger (setting [3]) turned out to be 0.01 µg/mL (≈ 0.026 µM).
The same measure, in the same setting: under `CCOc1cnc(SC)nc1OCC#CI` [2-methylthio-5-ethoxy-4-(3-iodopropargyloxy) pyrimidine] stands 0.07 µg/mL (≈ 0.2 µM).
On to `COc1cnc(SC)nc1OCC#CI` [2-methylthio-5-methoxy-4-(3-iodopropargyloxy) pyrimidine], for which, in [1], the “activity against Trichophyton mentagrophytes compared with known antimycotic agents” value is recorded as “comparable with that of the best antimycotic agents previously known” and the “activity … (in words)” value is reported as “lies in the same range”.
Consider `Clc1ccccc1C(c1ccccc1)(c1ccccc1)n1ccnc1` [Clotrimazole, reference compound], for which the MIC worked out at 0.3 µg/mL (≈ 0.87 µM) in the test on Candida Alicans, 0.03 µg/mL (≈ 0.087 µM) in test [1], 3.1 µg/mL (≈ 8.99 µM) with Aspergillus Niger (setting [4]) and 3.1 µg/mL (≈ 8.99 µM) in the test with Sacharomyces Pastorianus.
As to `CCCSc1ncc(OC)c(OCC#CI)n1` [Compound I, 2 propylthio5-methoxy-4-(3 iodoprogargyloxy) pyrimidine], the MIC with Candida Alicans was determined as 3.1 µg/mL (≈ 8.51 µM); in test [1] it was 0.07 µg/mL (≈ 0.192 µM); in the test on Aspergillus Niger (setting [4]) it was 0.01 µg/mL (≈ 0.0275 µM); with Sacharomyces Pastorianus it was 0.3 µg/mL (≈ 0.824 µM).
As to `C=CCSc1nccc(OCC#CI)n1` [Compound II, 2allylthio-4-(3-iodopropargyloxy) pyrimidine], the MIC amounted to 0.7 µg/mL (≈ 2.11 µM) in the test with Candida Alicans, 0.07 µg/mL (≈ 0.211 µM) in [1], 0.3 µg/mL (≈ 0.903 µM) with Aspergillus Niger (setting [4]) and 0.15 µg/mL (≈ 0.452 µM) with Sacharomyces Pastorianus.
Take `Clc1cc(Cl)c(OCC#CI)cc1Cl` [Haloprogine, reference compound]: the MIC with Candida Alicans was determined as 1.2 µg/mL (≈ 3.32 µM); in test [1], 0.6 µg/mL (≈ 1.66 µM).
